Measured values: patent publication US20180099931A1 (AbbVie S.à.r.l., priority 2016, published 2018)
Read-outs that look alike come from different tables or passages of the source.

Biological target: T1, F508delCFTR (Homo sapiens, UniProt P13569, DEL508-508)
T1 construct: expressed in transfected cells; host or cells: CFBE41o- human lung-derived epithelial cells (CFBE4lo-F508delCFTR-HRP), doxycycline-inducible
Test: Cell Surface Expression-Horse Radish Peroxidase (CSE-HRP) Assay;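 as to Maximum % activity (with co-corrector): co-corrector and positive control are both the same reference corrector at 2 µM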;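 as to Maximum % activity (without co-corrector): percent of the 2 µM on-plate positive control corrector response above DMSO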
Type: cell-based
Conditions: for Emax / Maximum % activity (with co-corrector): maximum at any tested concentration, normalized to on-plate positive control; for Emax: read-out: Maximum % activity (without co-corrector)

[1] = test compound without co-corrector
[2] = test compound without co-corrector, read-out: EC50 (without co-corrector)
[3] = with co-corrector (2 μM of 3-[(2R,4R)-4-({[1-(2,2-difluoro-1,3-benzodioxol-5-yl)cyclopropyl]carbonyl}amino)-7-methoxy-3,4-dihydro-2H-chromen-2-yl]benzoic acid)
[4] = with co-corrector (2 μM of 3-[(2R,4R)-4-({[1-(2,2-difluoro-1,3-benzodioxol-5-yl)cyclopropyl]carbonyl}amino)-7-methoxy-3,4-dihydro-2H-chromen-2-yl]benzoic acid), read-out: EC50 (with co-corrector)
[5] = CSE-HRP, test compound without co-corrector, read-out: EC50 (without co-corrector)
[6] = CSE-HRP, with co-corrector (2 μM of 3-[(2R,4R)-4-({[1-(2,2-difluoro-1,3-benzodioxol-5-yl)cyclopropyl]carbonyl}amino)-7-methoxy-3,4-dihydro-2H-chromen-2-yl]benzoic acid), read-out: EC50 (with co-corrector)
[7] = CSE-HRP, with co-corrector (2 μM)

T1 sequence (P13569 with tags, fused parts or gaps DEL508-508): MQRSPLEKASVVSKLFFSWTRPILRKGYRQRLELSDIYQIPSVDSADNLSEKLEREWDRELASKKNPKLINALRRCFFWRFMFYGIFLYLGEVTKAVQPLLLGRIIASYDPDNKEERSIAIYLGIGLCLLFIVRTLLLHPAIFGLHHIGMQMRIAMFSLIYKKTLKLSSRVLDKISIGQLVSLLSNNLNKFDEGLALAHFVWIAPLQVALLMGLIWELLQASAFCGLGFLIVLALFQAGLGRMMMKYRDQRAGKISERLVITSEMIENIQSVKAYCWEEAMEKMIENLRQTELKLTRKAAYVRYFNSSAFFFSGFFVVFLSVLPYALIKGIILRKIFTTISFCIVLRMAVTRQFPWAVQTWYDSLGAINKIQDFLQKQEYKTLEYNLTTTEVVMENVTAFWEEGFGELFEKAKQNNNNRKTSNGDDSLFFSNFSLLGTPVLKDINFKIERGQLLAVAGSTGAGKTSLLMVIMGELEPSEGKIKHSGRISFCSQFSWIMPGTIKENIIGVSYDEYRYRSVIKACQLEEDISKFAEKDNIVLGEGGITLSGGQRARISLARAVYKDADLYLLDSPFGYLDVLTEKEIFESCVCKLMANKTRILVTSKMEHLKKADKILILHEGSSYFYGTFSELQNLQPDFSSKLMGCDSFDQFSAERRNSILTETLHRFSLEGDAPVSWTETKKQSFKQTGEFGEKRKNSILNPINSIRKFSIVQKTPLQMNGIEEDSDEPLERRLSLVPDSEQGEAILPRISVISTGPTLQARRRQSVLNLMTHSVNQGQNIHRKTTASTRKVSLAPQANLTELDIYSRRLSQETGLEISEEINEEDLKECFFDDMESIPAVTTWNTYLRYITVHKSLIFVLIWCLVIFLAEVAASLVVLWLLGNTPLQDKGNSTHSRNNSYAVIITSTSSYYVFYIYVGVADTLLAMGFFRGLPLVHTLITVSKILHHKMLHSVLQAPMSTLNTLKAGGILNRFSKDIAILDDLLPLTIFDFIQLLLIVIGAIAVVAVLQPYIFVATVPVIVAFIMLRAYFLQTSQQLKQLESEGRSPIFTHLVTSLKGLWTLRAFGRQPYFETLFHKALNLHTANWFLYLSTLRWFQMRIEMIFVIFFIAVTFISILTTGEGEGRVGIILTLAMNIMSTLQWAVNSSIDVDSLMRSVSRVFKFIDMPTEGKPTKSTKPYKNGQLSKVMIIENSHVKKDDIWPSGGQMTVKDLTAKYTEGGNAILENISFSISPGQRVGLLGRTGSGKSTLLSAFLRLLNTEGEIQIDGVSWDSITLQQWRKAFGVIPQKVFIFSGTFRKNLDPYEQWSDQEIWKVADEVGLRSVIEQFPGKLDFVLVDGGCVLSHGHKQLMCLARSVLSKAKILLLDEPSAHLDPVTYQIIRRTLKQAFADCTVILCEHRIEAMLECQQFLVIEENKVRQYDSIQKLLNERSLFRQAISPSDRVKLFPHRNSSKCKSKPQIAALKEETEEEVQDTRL

Row | Structure (SMILES) | Emax [1] | EC50 [2] | Maximum % activity (with co-corrector) [3] | EC50 [4] | Maximum % activity (with co-corrector) (with co-corrector (2 μM)) | Emax (without co-corrector) | EC50 [5] | EC50 [6] | Maximum % activity (with co-corrector) [7] | Emax (CSE-HRP, without co-corrector)
1 | CC(N[C@@H]1[C@@H](C(C)(C)C)[C@H](C(=O)O)N(C(=O)C2CCCCC2)[C@@H]1c1ccccc1)c1ccc2c(c1)OC(F)(F)O2 (mixture of isomers) [Example I-3] | – | > 10 µM | – | 1 to 10 µM | ++ (≥150 and <350) | < 100% | – | – | – | –
2 | COc1ccc(C(C)(C)C)cc1CN[C@H]1[C@H](C(C)(C)C)[C@@H](C(=O)O)N(C(=O)[C@H]2CCC[C@H](OC)C2)[C@H]1c1ccccc1 [Example I-58] | – | 1 to 10 µM | – | 1 to 10 µM | +++ (≥350) | > 200% | – | – | – | –
3 | COc1ccc(-c2ccccc2)cc1CN[C@H]1[C@H](C(C)(C)C)[C@@H](C(=O)O)N(C(=O)[C@@H]2CCC[C@@H](OC)C2)[C@H]1c1ccccc1 [Example I-78] | – | 1 to 10 µM | – | < 1 µM | +++ (≥350) | > 200% | – | – | – | –
4 | COc1ncc(C2CCC2)cc1CN[C@H]1[C@H](C(C)(C)C)[C@@H](C(=O)O)N(C(=O)OC(C)C)[C@H]1c1ccccc1 [Example I-214] | – | 1 to 10 µM | – | 1 to 10 µM | +++ (≥350) | > 200% | – | – | – | –
5 | COc1nc(C(C)(C)C)ccc1CN[C@H]1[C@H](C(C)(C)C)[C@@H](C(=O)O)N(C(=O)[C@@H]2CCCCO2)[C@H]1c1ccccc1 [Example 38, (2S,3S,4S,5S)-3-tert-butyl-4-{[(6-tert-butyl-2-methoxypyridin-3-yl)methyl]amino}-1-[(2S)-oxane-2-carbonyl]-5-phenylpyrrolidine-2-carboxylic acid] | – | 1 to 10 µM | – | < 1 µM | +++ (≥350) | > 200% | – | – | – | –
6 | COc1ncc(C2CC2)cc1CN[C@H]1[C@H](C(C)(C)C)[C@@H](C(=O)O)N(C(=O)[C@@H]2CCCO2)[C@H]1c1ccccc1C(C)C [Example 101, (2S,3S,4S,5S)-3-tert-butyl-4-{[(5-cyclopropyl-2-methoxypyridin-3-yl)methyl]amino}-1-[(2S)-oxolane-2-carbonyl]-5-[2-(propan-2-yl)phenyl]pyrrolidine-2-carboxylic acid] | – | 1 to 10 µM | – | < 1 µM | +++ (≥350) | > 200% | – | – | – | –
7 | CO[C@H](C(=O)N1[C@H](c2ccccc2)[C@H](Nc2cc(C(F)(F)F)cc(C)n2)[C@@H](C(C)(C)C)[C@@H]1C(=O)O)c1ccccc1 (relative stereo) [Example I-33] | – | > 10 µM | – | 1 to 10 µM | ++ (≥150 and <350) | < 100% | – | – | – | –
8 | COc1ncc(C2CCC2)cc1CN[C@H]1[C@H](C(C)(C)C)[C@@H](C(=O)O)N(C(=O)[C@H]2CCCCO2)[C@H]1c1ccccc1C [Example I-266] | – | – | – | – | – | – | 1 to 10 µM | 1 to 10 µM | +++ (≥350) | > 200%
9 | COc1ccc(C(C)(C)C)cc1CN[C@H]1[C@H](C(C)(C)C)[C@@H](C(=O)O)N(C(=O)OC(C)(C)C)[C@H]1c1cccnc1OC [Example I-232] | – | 1 to 10 µM | – | 1 to 10 µM | +++ (≥350) | > 200% | – | – | – | –
10 | COc1ncc(Cl)cc1CN[C@@H]1[C@@H](C(C)(C)C)[C@H](C(=O)O)N(C(=O)C2CCCCC2)[C@@H]1c1ccccc1 (racemic) [Example I-36] | – | 1 to 10 µM | – | 1 to 10 µM | +++ (≥350) | 100 to 200% | – | – | – | –

Further lines, results first:

Row | Emax [1] | EC50 [2] | Maximum % activity (with co-corrector) [3] | EC50 [4] | Maximum % activity (with co-corrector) (with co-corrector (2 μM)) | Emax (without co-corrector) | EC50 [5] | EC50 [6] | Maximum % activity (with co-corrector) [7] | Emax (CSE-HRP, without co-corrector) | Structure (SMILES)
11 | > 200% | < 1 µM | +++ (≥350) | < 1 µM | – | – | – | – | – | – | COc1ccc(C(C)(C)C)cc1CN[C@H]1[C@H](C(C)(C)C)[C@@H](C(=O)O)N(C(=O)C2CCCCC2)[C@H]1c1ccccc1C [II-576]
12 | > 200% | < 1 µM | – | < 1 µM | +++ (≥350) | – | – | – | – | – | COc1ccc(C23CC(C2)C3)cc1CN[C@H]1[C@H](C(C)(C)C)[C@@H](C(=O)O)N(C(=O)OC(C)C)[C@H]1c1ccccc1C(C)C [III-220]
13 | > 200% | < 1 µM | – | < 1 µM | +++ (≥350) | – | – | – | – | – | COc1ccc(C(C)(C)C)cc1CN[C@H]1[C@H](C(C)(C)C)[C@@H](C(=O)O)N(C(=O)C2CCc3ccccc3C2)[C@H]1c1ccccc1 (stereo partly drawn) [III-191]
14 | < 100% | 1 to 10 µM | +++ (≥350) | 1 to 10 µM | – | – | – | – | – | – | COc1ncc(-c2cccnc2C)cc1CN[C@H]1[C@H](C(C)(C)C)[C@@H](C(=O)O)N(C(=O)C2CCCCC2)[C@H]1c1ccccc1 [II-348]
15 | – | – | – | – | – | – | 1 to 10 µM | 1 to 10 µM | +++ (≥350) | < 100% | COc1ncc(Br)cc1CN[C@H]1[C@H](C(C)(C)C)[C@@H](C(=O)O)N(C(=O)C2CCCCC2)[C@H]1c1ccccc1F [II-263]
16 | – | – | – | – | – | – | 1 to 10 µM | 1 to 10 µM | ++ (≥150 and <350) | < 100% | COc1ccc(C(C)(C)C)cc1CN[C@H]1[C@H](C(C)(C)C)[C@@H](C(=O)O)N(C(=O)CN2CCCC2)[C@H]1c1ccccc1 [II-187]
17 | < 100% | > 10 µM | – | < 1 µM | + (<150) | – | – | – | – | – | CC(C)OC(=O)N1[C@H](C(=O)O)[C@@H](C(C)(C)C)[C@H](NCC2CCN(C(C)C)CC2)[C@@H]1c1ccccc1 [III-235]
18 | > 200% | 1 to 10 µM | +++ (≥350) | 1 to 10 µM | – | – | – | – | – | – | COc1cc(C(F)(F)F)ccc1CN[C@H]1[C@H](C(C)(C)C)[C@@H](C(=O)O)N(C(=O)OC(C)C)[C@H]1c1ccccc1 [II-487]
19 | – | – | – | – | – | – | 1 to 10 µM | 1 to 10 µM | +++ (≥350) | 100 to 200% | COc1ccc(C(C)(C)C)cc1CN[C@H]1[C@H](C(C)(C)C)[C@@H](C(=O)O)N(C(=O)CN2CCOCC2)[C@H]1c1ccccc1 [II-209]
20 | – | – | – | – | – | – | < 1 µM | < 1 µM | +++ (≥350) | > 200% | COc1ccc(C(C)(C)C)cc1CN[C@H]1[C@H](C(C)(C)C)[C@@H](C(=O)O)N(C(=O)C2Cc3ccccc3CO2)[C@H]1c1ccccc1 (stereo partly drawn) [II-300]
21 | – | – | – | – | – | – | 1 to 10 µM | 1 to 10 µM | +++ (≥350) | 100 to 200% | COc1cc(C(F)(F)F)ccc1CN[C@H]1[C@H](C(C)(C)C)[C@@H](C(=O)O)N(C(=O)C2CCCCC2)[C@H]1c1cccnc1C [II-94]
22 | – | – | – | – | – | – | 1 to 10 µM | 1 to 10 µM | ++ (≥150 and <350) | < 100% | COc1ccc(CN[C@@H]2[C@@H](C(C)(C)C)[C@H](C(=O)O)N(C(=O)C3CCCCC3)[C@@H]2c2ccccc2)c(OC)c1Cl (racemic) [II-3]
23 | > 200% | 1 to 10 µM | +++ (≥350) | < 1 µM | – | – | – | – | – | – | COc1ccc(C(C)(C)C)cc1CN[C@H]1[C@H](C(C)(C)C)[C@@H](C(=O)O)N(C(=O)C(C)Oc2ccccc2F)[C@H]1c1ccccc1 (stereo partly drawn) [II-324]
24 | 100 to 200% | 1 to 10 µM | – | 1 to 10 µM | +++ (≥350) | – | – | – | – | – | COc1ccc(Cl)cc1CN[C@@H]1[C@@H](C(C)(C)C)[C@H](C(=O)O)N(C(=O)C2CCCCC2)[C@@H]1c1cccnc1N(C)C (racemic) [III-94]
25 | 100 to 200% | 1 to 10 µM | +++ (≥350) | 1 to 10 µM | – | – | – | – | – | – | COc1ccc(OC(F)(F)F)cc1CN[C@H]1[C@H](C(C)(C)C)[C@@H](C(=O)O)N(C(=O)[C@H](C)c2ccccc2)[C@H]1c1cccnc1OC [II-542]
26 | – | – | – | – | – | – | 1 to 10 µM | 1 to 10 µM | +++ (≥350) | > 200% | COc1ccc(C(C)(C)C)cc1CN[C@H]1[C@H](C(C)(C)C)[C@@H](C(=O)O)N(C(=O)[C@H]2OCC[C@H]2C)[C@H]1c1ccccc1 (relative stereo) [II-269]
27 | < 100% | 1 to 10 µM | – | 1 to 10 µM | ++ (≥150 and <350) | – | – | – | – | – | COc1ccc2c(C)cc(N[C@H]3[C@H](C(C)(C)C)[C@@H](C(=O)O)N(C(=O)C4CCCCC4)[C@H]3c3ccccc3)nc2c1 [III-151]
28 | 100 to 200% | < 1 µM | +++ (≥350) | < 1 µM | – | – | – | – | – | – | COc1ncc(-c2ccc(C)cc2)cc1CN[C@H]1[C@H](C(C)(C)C)[C@@H](C(=O)O)N(C(=O)C2CCCCC2)[C@H]1c1ccccc1 [II-347]
29 | > 200% | 1 to 10 µM | +++ (≥350) | 1 to 10 µM | – | – | – | – | – | – | COc1cc(C(F)(F)F)ccc1CN[C@H]1[C@H](C(C)(C)C)[C@@H](C(=O)O)N(C(=O)[C@H]2CCC[C@H](OC)C2)[C@H]1c1ccccc1 [II-571]
30 | 100 to 200% | < 1 µM | +++ (≥350) | < 1 µM | – | – | – | – | – | – | COc1ccc(C(C)(C)C)cc1CN[C@H]1[C@H](C(C)(C)C)[C@@H](C(=O)O)N(C(=O)[C@@H]2[C@@H](C(F)(F)F)[C@@H]3CC[C@H]2O3)[C@H]1c1ccccc1OC(F)F (relative stereo) [II-507]
